Columns and labels:
[1] = tested on: R 604 culture (Lactococcus lactis); experiment: Yield of Lactococcus lactis fermentation at standard anaerobic high-OD conditions; assay type: cell-based
Protocol: To illustrate the effect of adding extra purine containing compounds to an already enriched and optimized media two different types of industrial scale fermentation were compared, one with and one without 0.3% w/w inosine added.
The present experiment was performed using the commercially available R 604 culture, which is available from Chr. Hansen A/S, Hoersholm, Denmark (catalogue no. 200113).
The cultures were cultured in a medium having the following composition: Casein hydrolysate (Oxoid, Basingstoke, UK, Product Code L41), 30 g/l; Primatone RL (Quest, Naarden, The Netherlands, Product Code 5X59051), 30 g/l; soya peptone (Oxoid, Basingstoke, UK, Product Code L44), 30 g/l; yeast extract (Oxoid, Basingstoke, UK, Product Code L21), 15 g/l; MgSO4, 1.5 g/l; Na-ascorbate, 3 g/l; and lactose 50 g/l.
The medium was sterilized by UHT-treatment (143° C. for 8 sec.).
The fermentation was performed in a 550 L industrial fermentation tank without aeration at 30° C. using 1% (w/w) of the culture mentioned above as inoculum. At high OD conditions the fermentation is essentially anaerobic. The cultures were allowed to acidify to pH 6.0. The pH was subsequently maintained at 6.0 by controlled addition of 13.4 N NH4OH.
When no further base consumption was detected, the respective culture was cooled down to about 10° C.
Following cooling, the bacteria in culture media were concentrated 6-18 times by centrifugation and subsequently frozen as pellets in liquid nitrogen at one atmosphere of pressure to produce a so-called frozen Direct Vat Set culture (F-DVS). The F-DVS pellets were stored at −50° C. until further analysis
The yields of the fermentations were specified in two different ways: • 1) by the obtained biomass measured as the Optical Density at 600 nm (OD600), or • 2) by kg of F-DVS culture pr. 100 L fermentation medium wherein the F-DVS culture have an “acidification activity” of 4.8-5.1 according to the Pearce test described in Example 2: Analytical Procedure QAm-043.

[2] = tested on: Streptococcus thermophilus culture CHQ-18; experiment: Yield of Streptococcus thermophilus fermentation at standard anaerobic high-OD conditions; assay type: cell-based; details: 0.2% w/w added, 3 L tank, 40° C., pH 6.0
Protocol: 0.2% w/w inosine is approximately 7 mM inosine.
This experiment was performed to investigate the effect of adding extra purine containing compounds to an already enriched and optimized media to be used for anaerobic fermentation at high OD-conditions.
The present experiment was performed using the commercially available Streptococcus thermophilus culture CHQ-18, which is available from Chr. Hansen A/S, Hoersholm, Denmark.
The cultures were cultured in a rich medium based on complex medium components, BioSpringer yeast extract 207, Arla skim milk powder (Milex 240), and lactose.
The fermentation was performed in a 3 L agitated fermentation tank at 40° C. using 0.1% (w/w) of the culture mentioned above as inoculum. The pH was maintained at 6.0 by addition of 13.4 N NH4OH. Anaerobic conditions were ensured by flushing with nitrogen in head space (1.5 l/min). Agitation was 300 rpm.
The yields of the fermentations were specified by the obtained biomass measured as the Optical Density at 600 nm (OD600) of unconcentrated samples sampled during the fermentation.

[3] = tested on: L. lactis subsp. lactis CHCC2862; experiment: Proteomics (2D protein gels) for detection of exogenous purines in the medium; assay type: cell-based, Lactococcus lactis subsp. lactis; details: 0.2% inosine, SA medium with 1% glucose
Protocol: To set up a specific method for detection of the presence/absence of exogenous purines in the medium we inoculated L. lactis subsp. lactis CHCC2862 into defined SA medium with 1% glucose. This medium is devoid of nucleo compounds (Jensen & Hammer 1993). Cultures were set up at 30° C. with and without 0.2% inosine and incubated overnight. Exponentially growing cells were then inoculated into fresh medium at an OD600 of around 0.1. At OD 0.8 (exponential growth) and in stationary phase cells were harvested and 2D protein gels were produced.
In general around 3-400 protein spots were detectable on the gels with the pH range 4-7. For OD 0.8 there were less than 10 spots that were present from the culture without inosine, but absent (or very weak) from the culture with inosine. […] Four of the strongest spots present only on the gel produced from the culture without purines were subjected to in-gel digestion and mass spectrometry identification. The proteins were identified as: purH (bifunctional purine biosynthesis protein), purM (phosphoribosylaminoimidazole synthase), yphF (phosphoribosylformylglycinamidine synthase PurS), and fhs (formyltetrahydrofolate synthetase). […]
Identification of proteins. The identity of proteins in chosen spots was determined by in-gel digestion and analysis of peptide profile and amino acid content using mass spectrometry. […]

[4] = 0.3% w/w inosine, 550 L tank without aeration, 30° C., pH 6.0

## OC[C@H]1O[C@@H](n2cnc3c(O)ncnc32)[C@H](O)[C@@H]1O [inosine]
[1]; 0.3% w/w inosine added to the anaerobic culture medium before the start of the fermentation
  Effect of enhancing agent on yield: did not result in increased yields
[1]; [4]
  Yield according to Pearce: 4.98
  Yield as OD600: 25.2
[2]
  Effect of enhancing agent on yield (biomass as OD600, FIG. 1): did not result in increased yields
[3]; 30° C., OD 0.8 (exponential growth), gels pH 4-7
  Protein spots present from the culture without inosine, but absent (or very weak) from the culture with inosine: less than 10 spots
[3]; cells in stationary phase
  Absence/presence pattern of purine de novo synthesis protein spots: a similar absence/presence pattern was obtained
